From patent publication US20240215573A1, “LIQUID AGROCHEMICAL COMPOSITION” (NOURYON CHEMICALS INTERNATIONAL B.V., priority 2020, published 2024)

Assays:
Format in all cases: in vivo
Alfalfa [1] = assay: Greenhouse Test 1: weed control by 2,4-D with surfactants
Text: In a first series of Examples, the following compounds are utilized to evaluate the efficacy of various herbicides in combination with various surfactants against two types of weeds: • Herbicides: […]; dicamba; and glufosinate • Surfactants: Glycerol Monosoyate+10EO; • Glycerol Monosoyate+15EO; • Glycerol Monosoyate+20EO; • Glycerol Monosoyate+30EO; • Glycerol Monosoyate+50EO; • Soybean oil+20EO; • Reference 1—Polyoxyethylene (20) sorbitan monolaurate • Reference 2—Sodium lauryl ether sulfate The following test protocol is used:
(§1) Data is collected at end of each week for 4 weeks.

Alfalfa [2] = assay: Greenhouse Test 1: weed control by dicamba with surfactants
Text: (§2) In a first series of Examples, the following compounds are utilized to evaluate the efficacy of various herbicides in combination with various surfactants against two types of weeds: • Herbicides: 2,4-D ester; dicamba; and glufosinate • Surfactants: Glycerol Monosoyate+10EO; • Glycerol Monosoyate+15EO; • Glycerol Monosoyate+20EO; • Glycerol Monosoyate+30EO; • Glycerol Monosoyate+50EO; • Soybean oil+20EO; • Reference 1—Polyoxyethylene (20) sorbitan monolaurate • Reference 2—Sodium lauryl ether sulfate The following test protocol is used:
as §1

Morning glory = assay: Greenhouse Test 1: weed control by glufosinate with surfactants
Text: as §2, §1

[3] = tested on: Anthracnose (Colletotrichum gloeosporioides); assay: Greenhouse Test 2: Thiophenate methyl 70% WP with surfactants against anthracnose of grapes; conditions: Table C, summary in words
Text: (§3) In a second series of Examples, the following compounds are utilized to evaluate the efficacy of various fungicides in combination with various surfactants against fungi: • Fungicides: Hexaconazole 5% EC; Dimethomorph 50WP; Thiophenate methyl 70% WP; Azoxystrobin 23 SC • Surfactants: • Dioctyl sulfosuccinate • Alkoxylated glyceride with 20EO; • Alkoxylated glyceride with 50EO; • Siloxane Polyalkyleneoxide Copolymer • Fungi: • Powdery mildew (Erysiphenecator); • Downy mildew (Plasmopara viticola); • Anthracnose (Colletotrichum gloeosporioides); and • Early blight (Alternariasolani). The following test protocol is used:
(§4) There are 4 different fungicide formulations tested against 4 different pests (fungi). For each test there are untreated control (#1) and fungicide only w/o surfactant (#2). The same general protocol described above was used.
Percent Disease Index (PDI) for powdery mildew, downy mildew, anthracnose and early blight diseases were calculated by following formulae: […]
In case of grapes ratings on minimum ten leaves and a bunch were recorded on randomly selected canes. Ten such canes per plant were observed. The observations on 8 plants spread over four replication were recorded. Thus, the data presented on PDI is average of randomly selected 80 canes.

fungi = assay: Greenhouse Test 2: overall comparison over the 4 fungicide formulations and 4 fungi; conditions: all 4 fungicide formulations; summary in words
Text: as §3, §4

[4] = Table 1A: 2,4-D DMA 91 g ae/A, surfactant 0.1%
[5] = Table 1B: 2,4-D DMA 91 g ae/A, surfactant 0.25%
[6] = Table 1C: 2,4-D DMA 91 g ae/A, surfactant 0.25% (so in the source)
[7] = Table 1D: 2,4-D DMA 91 g ae/A (so in the source), surfactant 0.25%
[8] = Table 2A: Dicamba 23 g ae/A, surfactant 0.1%
[9] = Table 2B: Dicamba 23 g ae/A, surfactant 0.25%
[10] = Table 2C: Dicamba 45 g ae/A, surfactant 0.1%
[11] = Table 2D: Dicamba 45 g ae/A, surfactant 0.25%
[12] = Table 3A: Glufosinate 3 oz/a, surfactant 0.25%
[13] = Table 3B: Glufosinate 3 oz/a, surfactant 0.5%
[14] = Table 3C: Glufosinate 6 oz/a, surfactant 0.25%
[15] = Table 3D: Glufosinate 6 oz/a, surfactant 0.50%

## CNC.O=C(O)COc1ccc(Cl)cc1Cl [2,4-D DMA]
Alfalfa [1]; [4]
  % weed control, 7 day: 0.0%
  % weed control, 14 day: 0.0%
  % weed control, 21 day: 27.5%
  % weed control, 28 day: 32.5%
Alfalfa [1]; [5]
  % weed control, 7 day: 0.0%
  % weed control, 14 day: 0.0%
  % weed control, 21 day: 27.5%
  % weed control, 28 day: 32.5%
Alfalfa [1]; [6]
  % weed control, 7 day: 0.0%
  % weed control, 14 day: 7.5%
  % weed control, 21 day: 57.5%
  % weed control, 28 day: 57.5%
Alfalfa [1]; [7]
  % weed control, 7 day: 0.0%
  % weed control, 14 day: 7.5%
  % weed control, 21 day: 57.5%
  % weed control, 28 day: 57.5%

## COc1c(Cl)ccc(Cl)c1C(=O)O [Dicamba]
Alfalfa [2]; [8]
  % weed control, 7 day: 0.0%
  % weed control, 14 day: 20.0%
  % weed control, 21 day: 20.0%
  % weed control, 28 day: 12.5%
Alfalfa [2]; [9]
  % weed control, 7 day: 0.0%
  % weed control, 14 day: 20.0%
  % weed control, 21 day: 20.0%
  % weed control, 28 day: 12.5%
Alfalfa [2]; [10]
  % weed control, 7 day: 0.0%
  % weed control, 14 day: 50.0%
  % weed control, 21 day: 75.0%
  % weed control, 28 day: 55.0%
Alfalfa [2]; [11]
  % weed control, 7 day: 0.0%
  % weed control, 14 day: 50.0%
  % weed control, 21 day: 75.0%
  % weed control, 28 day: 55.0%

## CP(=O)(O)CCC(N)C(=O)O (centres unmarked) [Glufosinate]
Morning glory; [12]
  % weed control, 7 day: 0.0%
  % weed control, 14 day: 40.0%
  % weed control, 21 day: 25.0%
  % weed control, 28 day: 12.5%
Morning glory; [13]
  % weed control, 7 day: 0.0%
  % weed control, 14 day: 40.0%
  % weed control, 21 day: 25.0%
  % weed control, 28 day: 12.5%
Morning glory; [14]
  % weed control, 7 day: 0.0%
  % weed control, 14 day: 55.0%
  % weed control, 21 day: 40.0%
  % weed control, 28 day: 27.5%
Morning glory; [15]
  % weed control, 7 day: 0.0%
  % weed control, 14 day: 55.0%
  % weed control, 21 day: 40.0%
  % weed control, 28 day: 27.5%

## CCCCCCCCOC(=O)CC(C(=O)OCCCCCCCC)S(=O)(=O)O (centres unmarked) [dioctyl sulfosuccinate, Dioctyl sulfosuccinate]
[3]
  efficacy compared with alkoxylated glyceride with 20EO: lack of efficacy as compared to the alkoxylated glyceride with 20EO
fungi
  overall disease control with fungicides: overall good control in all cases

## Polyoxyethylene (20) sorbitan monolaurate
Morning glory; [12]
  % weed control, 7 day: 85.0%
  % weed control, 14 day: 80.0%
  % weed control, 21 day: 58.8%
  % weed control, 28 day: 56.3%
Morning glory; [13]
  % weed control, 7 day: 91.3%
  % weed control, 14 day: 92.0%
  % weed control, 21 day: 85.0%
  % weed control, 28 day: 82.5%
Morning glory; [14]
  % weed control, 7 day: 91.3%
  % weed control, 14 day: 91.3%
  % weed control, 21 day: 82.5%
  % weed control, 28 day: 81.3%
Morning glory; [15]
  % weed control, 7 day: 91.3%
  % weed control, 14 day: 93.8%
  % weed control, 21 day: 94.5%
  % weed control, 28 day: 95.8%
Alfalfa [1]; [4]
  % weed control, 7 day: 67.5%
  % weed control, 14 day: 83.8%
  % weed control, 21 day: 70.0%
  % weed control, 28 day: 72.5%
Alfalfa [1]; [5]
  % weed control, 7 day: 67.5%
  % weed control, 14 day: 81.3%
  % weed control, 21 day: 67.5%
  % weed control, 28 day: 72.5%
Alfalfa [1]; [6]
  % weed control, 7 day: 72.5%
  % weed control, 14 day: 86.3%
  % weed control, 21 day: 80.0%
  % weed control, 28 day: 85.0%
Alfalfa [1]; [7]
  % weed control, 7 day: 72.5%
  % weed control, 14 day: 82.5%
  % weed control, 21 day: 76.3%
  % weed control, 28 day: 81.3%
Alfalfa [2]; [8]
  % weed control, 7 day: 62.5%
  % weed control, 14 day: 73.8%
  % weed control, 21 day: 50.0%
  % weed control, 28 day: 62.5%
Alfalfa [2]; [9]
  % weed control, 7 day: 60.0%
  % weed control, 14 day: 70.0%
  % weed control, 21 day: 50.0%
  % weed control, 28 day: 50.0%
Alfalfa [2]; [10]
  % weed control, 7 day: 77.5%
  % weed control, 14 day: 87.5%
  % weed control, 21 day: 76.3%
  % weed control, 28 day: 81.3%
Alfalfa [2]; [11]
  % weed control, 7 day: 70.0%
  % weed control, 14 day: 83.8%
  % weed control, 21 day: 75.0%
  % weed control, 28 day: 78.8%

## Sodium lauryl ether sulfate
Morning glory; [12]
  % weed control, 7 day: 85.0%
  % weed control, 14 day: 75.0%
  % weed control, 21 day: 55.0%
  % weed control, 28 day: 55.0%
Morning glory; [13]
  % weed control, 7 day: 87.5%
  % weed control, 14 day: 90.0%
  % weed control, 21 day: 87.5%
  % weed control, 28 day: 77.5%
Morning glory; [14]
  % weed control, 7 day: 92.5%
  % weed control, 14 day: 95.8%
  % weed control, 21 day: 95.8%
  % weed control, 28 day: 96.5%
Morning glory; [15]
  % weed control, 7 day: 90.0%
  % weed control, 14 day: 88.8%
  % weed control, 21 day: 91.3%
  % weed control, 28 day: 89.5%
Alfalfa [1]; [4]
  % weed control, 7 day: 67.5%
  % weed control, 14 day: 83.8%
  % weed control, 21 day: 73.8%
  % weed control, 28 day: 75.0%
Alfalfa [1]; [5]
  % weed control, 7 day: 67.5%
  % weed control, 14 day: 82.5%
  % weed control, 21 day: 72.5%
  % weed control, 28 day: 67.5%
Alfalfa [1]; [6]
  % weed control, 7 day: 72.5%
  % weed control, 14 day: 86.3%
  % weed control, 21 day: 86.3%
  % weed control, 28 day: 87.5%
Alfalfa [1]; [7]
  % weed control, 7 day: 75.0%
  % weed control, 14 day: 85.0%
  % weed control, 21 day: 82.5%
  % weed control, 28 day: 83.8%
Alfalfa [2]; [8]
  % weed control, 7 day: 72.5%
  % weed control, 14 day: 81.3%
  % weed control, 21 day: 71.3%
  % weed control, 28 day: 70.0%
Alfalfa [2]; [9]
  % weed control, 7 day: 65.0%
  % weed control, 14 day: 80.0%
  % weed control, 21 day: 67.5%
  % weed control, 28 day: 70.0%
Alfalfa [2]; [10]
  % weed control, 7 day: 72.5%
  % weed control, 14 day: 82.5%
  % weed control, 21 day: 76.3%
  % weed control, 28 day: 76.3%
Alfalfa [2]; [11]
  % weed control, 7 day: 67.5%
  % weed control, 14 day: 82.5%
  % weed control, 21 day: 75.0%
  % weed control, 28 day: 75.0%
